Data: patent US11512203B2, “Water-soluble azo compound or salt thereof, ink and recording medium” (Nippon Kayaku Kabushiki Kaisha, priority 2016, dated 2022)

Experiments:
Format in all cases: physicochemical
[1] = Xenon light resistance test, inks of Examples 10 to 12 (Table 53); settings: Glossy paper 1 Canon GL-101, 2 Epson Crispia, 3 Brother BP71G
Method: Inks of Examples 10 to 12 were prepared as in Example 1 except that the compounds represented by the above formulae (110) to (112) were used, respectively, instead of the compound represented by the above formula (101).
(§1) Ink-jet recording was performed with an ink-jet printer (Canon, Inc., Product name: PIXUS ip7230) to allow each of the inks from Examples 10 to 12 and Comparative Examples 1, 2 above to be attached on the following glossy papers 1 to 3. Upon performing recording, image patterns were created so that the density can be obtained in a gradation of 6 levels: 100%, 85%, 70%, 55%, 40%, and 25% to obtain a half-tone recorded article. The resulting recorded article was used as a test piece to perform the following tests.
(§2) Glossy paper 1: Canon, Inc., Product name: Canon Photograph paper, gold grade (GL-101)
(§3) Glossy paper 2: Seiko Epson Corporation, Product name: Photograph paper Crispia
(§4) Glossy paper 3: Brother Industries, Ltd., Product name: BP71G
(§5) When required, color measurements of a recorded image were performed using a colorimeter (Product name SpectroEye from X-rite, Inc.). Color measurements were performed under the conditions of a density standard of ANSI A, a wide viewing angle of 2 degrees, a light source of D50. […]

[2] = Xenon light resistance test, ink of Example 17 (Table 57)
Method: An ink of Example 17 was prepared as in Example 1 except that the compound represented by the above formula (117) was used instead of the compound represented by the above formula (101).
as §1, with “Example 17” for “Examples 10 to 12”, “1, 2.” for “1 to 3.”
(§6) Glossy paper 1: Canon, Inc., Product name: Canon Photograph paper, platinum grade (PT-201)
Glossy paper 2: FUJIFILM Corporation, Product name: Gasai Photo-finishing Pro
When required, color measurements of a recorded image were performed using a colorimeter (Product name SpectroEye from X-rite, Inc.). Color measurements were performed under the conditions of a density standard of ANSI A, a wide viewing angle of 2 degrees, a light source of D50.
A test piece with a holder was placed in a xenon weatherometer XL75 (Suga Test Instruments Co., Ltd.), and irradiated for 168 hours at a temperature of 24° C., a humidity of 60% RH, and an illuminance of 100 klux. […]

[3] = Xenon light resistance test, inks of Examples 1, 2 (Table 48); settings: xenon 100 klux, 168 hours, 24° C., 60% RH, 55% density gradation, grade of coloring matter persistence rate; for Results from light resistance tests, Glossy paper 3: ink on Brother BP71G; for Results from light resistance tests, Glossy paper 1: ink on Canon Photograph paper, platinum grade (PT-201); for Results from light resistance tests, Glossy paper 4: ink on FUJIFILM Gasai Photo-finishing Pro; for Results from light resistance tests, Glossy paper 2: ink on Seiko Epson Photograph paper Crispia
Method: Components shown in Table 47 below were mixed to obtain solutions, which were then subjected to precision filtration through 0.45 μm membrane filters to prepare inks of Examples 1, 2 and Comparative Examples 1, 2. The numerical values in the table are in terms of “parts,” and the symbol “-” means that that component is not included. In Table 47 below, the component […] is indicated as “remainder”.
as §1, with “1, 2” for “10 to 12”, “2” for “2 above”, “4.” for “3.”
as §6, §3, §4
(§7) Glossy paper 4: FUJIFILM Corporation, Product name: Gasai Photo-finishing Pro
When required, color measurements were performed for a recorded image using a colorimeter (Product name SpectroEye from X-rite, Inc.). Color measurements were performed under the conditions of a density standard of ANSI A, a wide viewing angle of 2 degrees, a light source of D50.
A test piece with a holder was placed in a xenon weatherometer XL75 (Suga Test Instruments Co., Ltd.), and irradiated for 168 hours at a temperature of 24° C., a humidity of 60% RH, and an illuminance of 100 klux. A gradation portion with a density of 55% of each test piece was subjected to color measurements of reflection densities before and after the test. A coloring matter persistence rate was computed from the reflection densities obtained, and evaluation was performed using the following 3-grade criteria.
A coloring matter persistence rate of 85% or more: A A coloring matter persistence rate of 81% or more and less than 85%: B
A coloring matter persistence rate of less than 81%: C
(Formula for Computing Coloring Matter Persistence Rate) Coloring matter persistence rate (%)=(reflection density after test/reflection density before test)×100

[4] = Xenon light resistance test, ink of Example 16 (Table 56)
Method: An ink of Example 16 was prepared as in Example 1 except that the compound represented by the above formula (116) was used instead of the compound represented by the above formula (101).
as §1, with “Example 16” for “Examples 10 to 12”, “4.” for “3.”
as §6
Glossy paper 2: Canon, Inc., Product name: Canon Photograph paper, gold grade (GL-101)
Glossy paper 3: Seiko Epson Corporation, Product name: Photograph paper Crispia
Glossy paper 4: Brother Industries, Ltd., Product name: BP71G
as §5

[5] = Xenon light resistance test, ink of Example 4 (Table 50); settings: for each glossy paper (Table 50)
Method: An ink of Example 4 was prepared as in Example 1 except that the compound represented by the above formula (104) was used instead of the compound represented by the above formula (101).
as §1, with “4” for “10 to 12”, “4.” for “3.”
as §6, §3, §4, §7
When required, color measurements of a recorded image were performed using a colorimeter (Product name SpectroEye from X-rite, Inc.). Color measurements were performed under the conditions of a density standard of DIN NB, a wide viewing angle of 2 degrees, a light source of D65. […]

[6] = Xenon light resistance test, ink of Example 13 (Table 54); settings: Glossy paper 1 Canon GL-101, 2 Epson Photograph paper <glossy>, 3 FUJIFILM Gasai Photo-finishing Pro
Method: An ink of Example 13 was prepared as in Example 1 except that the compound represented by the above formula (113) was used instead of the compound represented by the above formula (101).
as §1, with “Example 13” for “Examples 10 to 12”
as §2
Glossy paper 2: Seiko Epson Corporation, Product name: Photograph paper
Glossy paper 3: FUJIFILM Corporation, Product name: Gasai Photo-finishing Pro
as §5

With `CCNc1nc(Nc2cc(Cl)c(N=Nc3ccc(Cl)c(S(=O)(=O)O)c3)cc2OCCCS(=O)(=O)O)nc(Nc2cc(Cl)c(N=Nc3ccc(Cl)c(S(=O)(=O)O)c3)cc2OCCCS(=O)(=O)O)n1` [Example 10] the “light resistance results as compared with Comparative Example 2” value [1] was “better results for each glossy paper”.

In the case of `O=S(=O)(O)CCCOc1cc(N=Nc2ccc(Cl)c(S(=O)(=O)O)c2)c(Cl)cc1Nc1nc(Nc2cc(Cl)c(N=Nc3ccc(Cl)c(S(=O)(=O)O)c3)cc2OCCCS(=O)(=O)O)nc(N2CCCC2)n1` [Example 17], the “light resistance as compared with Comparative Examples 1, 2 (conclusion)” value [2] is reported as “superior light resistance” and the “light resistance results as compared with Comparative Examples 1, 2” value [2] is reported as “good results for each glossy paper”.

For `COc1cc(N=Nc2cccc(S(=O)(=O)O)c2)ccc1NC(=O)Nc1ccc(N=Nc2cccc(S(=O)(=O)O)c2)cc1OC` [Comparative Example 2, C.I. Direct Yellow 132], the “Results from light resistance tests, Glossy paper 3” value [3] was “B (A coloring matter persistence rate of 81% or more and less than 85%)”, the “Results from light resistance tests, Glossy paper 1” value [3] was “B (A coloring matter persistence rate of 81% or more and less than 85%)” and the “Results from light resistance tests, Glossy paper 4” value [3] was “B (A coloring matter persistence rate of 81% or more and less than 85%)”. For the same molecule, the “Results from light resistance tests, Glossy paper 2” value [3] was “C (A coloring matter persistence rate of less than 81%)”.

In the case of `O=S(=O)(O)CCCOc1cc(N=Nc2ccc(Cl)c(S(=O)(=O)O)c2)c(Cl)cc1Nc1nc(NCCO)nc(Nc2cc(Cl)c(N=Nc3ccc(Cl)c(S(=O)(=O)O)c3)cc2OCCCS(=O)(=O)O)n1` [Comparative Example 1], the “Results from light resistance tests, Glossy paper 3” value [3] is reported as “B (A coloring matter persistence rate of 81% or more and less than 85%)”, the “Results from light resistance tests, Glossy paper 1” value [3] is reported as “B (A coloring matter persistence rate of 81% or more and less than 85%)” and the “Results from light resistance tests, Glossy paper 4” value [3] is reported as “C (A coloring matter persistence rate of less than 81%)”. The “Results from light resistance tests, Glossy paper 2” value [3] was “B (A coloring matter persistence rate of 81% or more and less than 85%)”.

In the case of `O=S(=O)(O)CCCOc1cc(N=Nc2ccc(Cl)c(S(=O)(=O)O)c2)c(Cl)cc1Nc1nc(NCC2CCCO2)nc(Nc2cc(Cl)c(N=Nc3ccc(Cl)c(S(=O)(=O)O)c3)cc2OCCCS(=O)(=O)O)n1` (stereo not drawn) [Example 16], the “light resistance as compared with Comparative Examples 1, 2 (conclusion)” value [4] is reported as “superior light resistance” and the “light resistance results as compared with Comparative Examples 1, 2” value [4] is reported as “good results for each glossy paper”.

For `COCCCNc1nc(Nc2cc(Cl)c(N=Nc3ccc(Cl)c(S(=O)(=O)O)c3)cc2OCCCS(=O)(=O)O)nc(Nc2cc(Cl)c(N=Nc3ccc(Cl)c(S(=O)(=O)O)c3)cc2OCCCS(=O)(=O)O)n1` [Example 4], the “light resistance tests, results compared with Comparative Examples 1, 2” value [5] was “better results”.

For `O=S(=O)(O)CCCOc1cc(N=Nc2ccc(Cl)c(S(=O)(=O)O)c2)c(Cl)cc1Nc1nc(Nc2cc(Cl)c(N=Nc3ccc(Cl)c(S(=O)(=O)O)c3)cc2OCCCS(=O)(=O)O)nc(NC(CO)CO)n1` [Example 13], the “light resistance results as compared with Comparative Example 2” value [6] was “better results for each glossy paper”.
